In patent US10189809B2, “SGC stimulators” (Ironwood Pharmaceuticals, Inc., priority 2010, dated 2019):
Like-named read-outs stand apart in the source and are kept apart here.

What was measured:
[1] = target: T1, soluble guanylate cyclase (sGC) (Homo sapiens (Human), UniProt Q02108+Q02153); assay: sGC-HEK-cGMP assay run in the absence of SNP (HEK WC assay); assay type: cell-based; conditions: compound at 30 μM, absence of SNP
Procedure, shortened: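 HEK293 cells with endogenous sGC, preincubated 15 min at 37° C with 0.5 mM IBMX, then exposed to test compound 10 min at 37° C without SNP. Cells lysed in 0.1 M HCl; cGMP quantified by LC/MS against a standard curve. EC50 from concentration-response curves.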

[2] = target: T1, soluble guanylate cyclase (sGC); assay: sGC-HEK-cGMP assay run with SNP incubation (HEK WC assay); assay type: cell-based; conditions: for HEK WC Assay (fold increase at 30 μM in the presence of 10 μM SNP): compound at 30 μM; for EC50: in the presence of 10 uM SNP
Procedure, shortened: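 HEK293 cells with endogenous sGC were pretreated with 0.5 mM IBMX for 15 min at 37 °C, then exposed to test compound plus sodium nitroprusside for 10 min at 37 °C.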

Thoracic aortic rings = assay: Alternative thoracic aortic rings assay (Example 19b; resting tension as 100% inhibition); design: species or system rat; conditions: Rattus norvegicus, Table 10B; for inhibition at 1 µM: read-out: Percent Relaxation at 1 μM; for inhibition at 3 µM: read-out: Percent Relaxation at 3 μM; for EC50: read-out: Aortic Ring EC50; for inhibition at 10 µM: read-out: Percent Relaxation at 10 μM
Experimental: Thoracic aortic rings were dissected from anesthetized (isoflurane) male Sprague-Dawley rats weighing 275-299 g. Tissues were immediately transferred to ice-cold Krebs-Henseleit solution, which had been aerated with 95% O2 and 5% CO2 for 30 minutes. Following removal of connective tissue, aortic sections were cut into 4 rings (˜2 mm each) and suspended on 2 L-shaped hooks, with one hook fixed at the bottom of the tissue bath (Schuler Organ Bath, Harvard Apparatus) and the other connected to a force transducer (F30 Force Transducer, Harvard Apparatus). Baths contained Krebs Henseleit solution (10 mL) heated to 37° C. and aerated with 95% O2 and 5% CO2. Rings were brought to an initial tension of 0.3-0.5 g and gradually raised to a resting tension of 1.0 g over 60 minutes. Rings were rinsed with Krebs Henseleit solution (heated to 37° C. and aerated with 95% O2 and 5% CO2) at 15 minute intervals until a stable baseline was obtained. Rings were considered to be stable after a resting tension of 1.0 g was maintained (for approximately 10 minutes) without need for adjustment. Rings were then contracted with 100 ng/mL phenylephrine by adding 100 uL of a 10 μg/mL phenylephrine stock solution. Tissues achieving a stable contraction were then treated in a cumulative, dose dependent manner with test compounds prepared in dimethylsulfoxide (DMSO). In some cases, tissues were rinsed three times over a 5 minute period with Krebs-Heinseleit's solution (heated to 37° C. and aerated with 95% O2 and 5% CO2), allowed to stabilize at baseline, and then used for characterization of other test articles or DMSO effects. All data were collected using the HSE-ACAD software provided by Harvard Apparatus. […] EC50 values were calculated from concentration-response curves generated with GraphPad Prism Software.

[3] = read-out: HEK WC Assay (% Emax at 1 μM with 10 uM SNP)
[4] = read-out: HEK WC Assay (% Emax at 10 μM with 10 uM SNP)
[5] = read-out: HEK WC Assay (% Emax at 30 μM with 10 uM SNP)

T1 sequence (Q02153 whole entry): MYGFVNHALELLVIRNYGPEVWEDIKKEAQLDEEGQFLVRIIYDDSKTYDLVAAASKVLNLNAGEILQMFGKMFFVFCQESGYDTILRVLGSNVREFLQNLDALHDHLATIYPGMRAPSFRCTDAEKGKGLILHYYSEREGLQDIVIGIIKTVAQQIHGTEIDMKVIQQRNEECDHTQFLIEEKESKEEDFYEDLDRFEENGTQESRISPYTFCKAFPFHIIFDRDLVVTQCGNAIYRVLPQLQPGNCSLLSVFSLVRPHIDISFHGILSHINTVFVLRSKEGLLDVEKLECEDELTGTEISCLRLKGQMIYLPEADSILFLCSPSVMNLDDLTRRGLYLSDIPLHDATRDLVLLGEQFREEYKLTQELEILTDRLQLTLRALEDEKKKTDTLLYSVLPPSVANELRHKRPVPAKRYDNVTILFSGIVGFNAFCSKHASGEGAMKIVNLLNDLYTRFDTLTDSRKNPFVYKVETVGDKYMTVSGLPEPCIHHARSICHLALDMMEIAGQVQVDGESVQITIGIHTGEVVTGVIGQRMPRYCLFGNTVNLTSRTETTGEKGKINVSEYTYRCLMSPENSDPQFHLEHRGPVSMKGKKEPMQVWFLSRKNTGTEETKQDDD
T1 sequence (Q02108 whole entry): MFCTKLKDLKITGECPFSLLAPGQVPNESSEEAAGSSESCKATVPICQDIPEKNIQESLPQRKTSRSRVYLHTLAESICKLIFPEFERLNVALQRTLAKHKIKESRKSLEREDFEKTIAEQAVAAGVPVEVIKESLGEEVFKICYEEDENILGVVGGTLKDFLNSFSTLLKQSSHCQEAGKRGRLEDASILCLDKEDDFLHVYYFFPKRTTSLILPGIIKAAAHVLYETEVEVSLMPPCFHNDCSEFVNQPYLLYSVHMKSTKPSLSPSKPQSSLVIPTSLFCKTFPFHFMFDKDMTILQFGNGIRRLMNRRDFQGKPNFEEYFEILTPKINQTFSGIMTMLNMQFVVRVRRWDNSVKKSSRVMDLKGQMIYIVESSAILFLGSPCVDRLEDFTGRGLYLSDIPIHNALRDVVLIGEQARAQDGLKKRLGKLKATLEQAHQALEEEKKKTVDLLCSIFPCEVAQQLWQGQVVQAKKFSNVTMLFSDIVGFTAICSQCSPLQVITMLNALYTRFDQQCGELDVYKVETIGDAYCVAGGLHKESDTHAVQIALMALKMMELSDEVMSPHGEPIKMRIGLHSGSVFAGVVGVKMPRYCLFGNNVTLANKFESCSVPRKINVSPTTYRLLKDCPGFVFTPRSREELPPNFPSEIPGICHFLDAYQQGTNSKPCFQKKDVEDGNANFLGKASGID

Structure (SMILES)	HEK WC Assay (fold increase at 30 μM in the absence of SNP) [1]	HEK WC Assay (fold increase at 30 μM in the presence of 10 μM SNP) [2]	EC50 [2] [µM]	Emax [2, 3] [%]	Emax [2, 4] [%]	Emax [2, 5] [%]	inhibition at 1 µM (Thoracic aortic rings) [%]	inhibition at 3 µM (Thoracic aortic rings) [%]	EC50 (Thoracic aortic rings) [µM]	inhibition at 10 µM (Thoracic aortic rings) [%]
Cc1ccccc1C(=O)Nc1cnc(-c2cc(-c3ccon3)n(Cc3ccccc3F)n2)nc1N [Compound I-184]	E (E = 10 to <20 fold increase)	E (E = 10 to <20 fold increase)	< 20	60 to 80	100 to 120	80 to 100	80 to 100	100 to 120	< 2	–
Nc1nc(-c2cc(-c3ccon3)n(Cc3ccccc3F)n2)ncc1NC(=O)OCCCl [Compound I-152]	E (E = 10 to <20 fold increase)	E (E = 10 to <20 fold increase)	< 20	–	60 to 80	40 to 60	60 to 80	80 to 100	< 2	100 to 120
COc1cccc(C(=O)Nc2cnc(-c3cc(-c4ccon4)n(Cc4ccccc4F)n3)nc2N)c1 [Compound I-174]	E (E = 10 to <20 fold increase)	F (F = 20 to <30 fold increase)	< 20	60 to 80	80 to 100	100 to 120	80 to 100	80 to 100	< 2	–
Nc1nc(-c2cc(-c3ncco3)n(Cc3ccccc3F)n2)ncc1F [Compound I-147]	D (D = 5 to <10 fold increase)	E (E = 10 to <20 fold increase)	< 20	–	80 to 100	60 to 80	60 to 80	80 to 100	< 2	80 to 100
CC(C)COC(=O)Nc1cnc(-c2cc(-c3ccon3)n(Cc3ccccc3F)n2)nc1N [Compound I-150]	E (E = 10 to <20 fold increase)	E (E = 10 to <20 fold increase)	< 20	–	80 to 100	80 to 100	40 to 60	80 to 100	< 2	80 to 100
CS(=O)(=O)c1cnc(-c2cc(-c3ccon3)n(Cc3ccccc3F)n2)nc1O [Compound I-196]	C (C = 2 to <5 fold increase)	E (E = 10 to <20 fold increase)	< 20	20 to 40	60 to 80	80 to 100	60 to 80	80 to 100	< 2	80 to 100
CC(C)(C)OC(=O)Nc1cnc(-c2cc(-c3ncco3)n(Cc3ccccc3F)n2)nc1N [Compound I-148]	D (D = 5 to <10 fold increase)	E (E = 10 to <20 fold increase)	< 20	–	100 to 120	100 to 120	80 to 100	80 to 100	< 2	–
Oc1nc(-c2cc(-c3ccon3)n(Cc3ccccc3F)n2)ncc1C(F)(F)F [Compound I-216]	C (C = 2 to <5 fold increase)	E (E = 10 to <20 fold increase)	< 20	20 to 40	40 to 60	40 to 60	40 to 60	80 to 100	< 2	100 to 120
CC(=O)Nc1cnc(-c2cc(-c3ncco3)n(Cc3ccccc3F)n2)nc1N [Compound I-151]	C (C = 2 to <5 fold increase)	D (D = 5 to <10 fold increase)	< 20	–	60 to 80	60 to 80	80 to 100	100 to 120	< 2	100 to 120
Nc1nc(-c2cc(-c3ccon3)n(Cc3ccccc3F)n2)ncc1NC(=O)C1(C(F)(F)F)CC1 [Compound I-237]	E (E = 10 to <20 fold increase)	F (F = 20 to <30 fold increase)	< 20	80 to 100	100 to 120	100 to 120	60 to 80	80 to 100	< 2	100 to 120
COc1ccccc1C(=O)Nc1cnc(-c2cc(-c3ccon3)n(Cc3ccccc3F)n2)nc1N [Compound I-166]	D (D = 5 to <10 fold increase)	G (G = 30 to <40 fold increase)	< 20	60 to 80	80 to 100	100 to 120	40 to 60	80 to 100	< 2	100 to 120
COCC(=O)Nc1cnc(-c2cc(-c3ccon3)n(Cc3ccccc3F)n2)nc1N [Compound I-177]	D (D = 5 to <10 fold increase)	E (E = 10 to <20 fold increase)	< 20	40 to 60	80 to 100	80 to 100	80 to 100	80 to 100	< 2	–
Nc1nc(-c2cc(-c3ccon3)n(Cc3ccccc3F)n2)ncc1NC(=O)c1ccccc1F [Compound I-172]	E (E = 10 to <20 fold increase)	E (E = 10 to <20 fold increase)	< 20	80 to 100	60 to 80	80 to 100	80 to 100	100 to 120	< 2	100 to 120
Fc1ccccc1Cn1nc(-c2ccccn2)cc1-c1ncon1 [Compound I-304]	C (C = 2 to <5 fold increase)	E (E = 10 to <20 fold increase)	20 to 40	–	20 to 40	40 to 60	20 to 40	60 to 80	< 2	80 to 100
